pIC50: −log10 of the molar value. Read-outs that look alike come from different tables or passages of the source.
What was measured:
[1] = test system: HT29 cells; test: Cellular SRB assay (Test (d)), potentiation of carboplatin; assay type: cell-based; details: for IC50: geometric mean
Experimental: (d) Cellular—SRB Assay The potentiation factor (PF50) for compounds is a measure of the fold increase in effect of a chemotherapeutic agent, when used in combination with an ATR inhibitor. Specifically, this is calculated as a ratio of the IC50 of control cell growth in the presence of a chemotherapeutic agent, typically carboplatin, divided by the IC50 of cell growth in the presence of this agent and the ATR inhibitor of interest. For this purpose, HT29 cells were seeded at the appropriate density to ensure exponential growth throughout the time of the assay (typically 1000-1500 cells) in each well of a 96-well plate, in a volume of 80 μl and incubated overnight at 37° C. Subsequently, cells were dosed with either DMSO vehicle, or treated with test compounds at fixed concentrations (typically 1, 0.3 & 0.1 μM). Following a one hour incubation at 37° C., the cells were further treated with a 10 point dose response of the chemotherapeutic agent, based on it's known sensitivity (typically 30-0.001 ug/ml for carboplatin). Cells were left to grow for 5 days at 37° C., after which time cell growth was assessed using the sulforhodamine B (SRB) assay (Skehan, P et al, 1990 New colorimetric cytotoxic assay for anticancer-drug screening. J. Natl. Cancer Inst. 82, 1107-1112.). Specifically, the media was removed and cells fixed with 100 μl of ice cold 10% (w/v) trichloroacetic acid. The plates were then incubated at 4° C. for 20 minutes prior to washing 4 times with water. Each well was then stained with 100 μL of 0.4% (w/v) SRB in 1% acetic acid for 20 minutes before a further 4 washes with 1% acetic acid. Plates were then dried for 2 hours at room temperature and the dye was solubilized by the addition of 100 μL Tris Base pH 8.5 into each well. Plates were shaken before measuring optical density at 564 nm (OD564). In order to calculate the PF50, the OD564 values obtained for the dose-response curve of chemotherapeutic agent were expressed as a percentage of the value obtained from cells treated with vehicle alone. Similarly, to act as a control for inclusion of the ATR inhibitor, values from the chemotherapeutic agent tested in combination with a fixed ATR inhibitor concentration were expressed as a percentage of the value obtained from cells treated with the corresponding concentration of ATR inhibitor alone. From these internally-controlled curves, IC50 values were calculated and the PF50 was determined as the ratio of these values, as described above. Compounds are compared using the PF50 value at concentrations of ATR inhibitor that show minimal growth inhibition on their own.

[2] = target: mTOR (Homo sapiens, UniProt P42345); test: Enzyme - mTOR Kinase Assay (Echo); assay type: biochemical; details: recombinant FLAG-tagged mTOR (1362-2549); AlphaScreen; ATP 20 μM;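 further: enzyme expressed in HEK293 cells, 2 h incubation at room temperature, read-out is phosphorylation of a biotinylated peptide substrate detected with an anti-phospho p70 S6 Kinase (T389) antibody, inhibition lowers signal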
[3] = target: T1, ATR (Homo sapiens, UniProt Q13535); test: Enzyme Assay - ATR (Test (a)); assay type: biochemical; details: ATR immunoprecipitated from HeLa nuclear extract; 3 μM ATP; average of individual tests; read-out: ATR average IC50;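 further: kinase activity of bead-bound ATR toward a GST-p53 N-terminal fragment substrate, 1 h at 37 °C, read by chemiluminescence, with inhibitor-free wells as control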
T1 construct: obtained from HeLa nuclear extract (CIL Biotech, Mons, Belgium) by immunoprecipitation with rabbit polyclonal antiserum raised to amino acids 400-480 of ATR; host or cells: HeLa nuclear extract
T1 sequence (Q13535 whole entry, the tested form may be a part): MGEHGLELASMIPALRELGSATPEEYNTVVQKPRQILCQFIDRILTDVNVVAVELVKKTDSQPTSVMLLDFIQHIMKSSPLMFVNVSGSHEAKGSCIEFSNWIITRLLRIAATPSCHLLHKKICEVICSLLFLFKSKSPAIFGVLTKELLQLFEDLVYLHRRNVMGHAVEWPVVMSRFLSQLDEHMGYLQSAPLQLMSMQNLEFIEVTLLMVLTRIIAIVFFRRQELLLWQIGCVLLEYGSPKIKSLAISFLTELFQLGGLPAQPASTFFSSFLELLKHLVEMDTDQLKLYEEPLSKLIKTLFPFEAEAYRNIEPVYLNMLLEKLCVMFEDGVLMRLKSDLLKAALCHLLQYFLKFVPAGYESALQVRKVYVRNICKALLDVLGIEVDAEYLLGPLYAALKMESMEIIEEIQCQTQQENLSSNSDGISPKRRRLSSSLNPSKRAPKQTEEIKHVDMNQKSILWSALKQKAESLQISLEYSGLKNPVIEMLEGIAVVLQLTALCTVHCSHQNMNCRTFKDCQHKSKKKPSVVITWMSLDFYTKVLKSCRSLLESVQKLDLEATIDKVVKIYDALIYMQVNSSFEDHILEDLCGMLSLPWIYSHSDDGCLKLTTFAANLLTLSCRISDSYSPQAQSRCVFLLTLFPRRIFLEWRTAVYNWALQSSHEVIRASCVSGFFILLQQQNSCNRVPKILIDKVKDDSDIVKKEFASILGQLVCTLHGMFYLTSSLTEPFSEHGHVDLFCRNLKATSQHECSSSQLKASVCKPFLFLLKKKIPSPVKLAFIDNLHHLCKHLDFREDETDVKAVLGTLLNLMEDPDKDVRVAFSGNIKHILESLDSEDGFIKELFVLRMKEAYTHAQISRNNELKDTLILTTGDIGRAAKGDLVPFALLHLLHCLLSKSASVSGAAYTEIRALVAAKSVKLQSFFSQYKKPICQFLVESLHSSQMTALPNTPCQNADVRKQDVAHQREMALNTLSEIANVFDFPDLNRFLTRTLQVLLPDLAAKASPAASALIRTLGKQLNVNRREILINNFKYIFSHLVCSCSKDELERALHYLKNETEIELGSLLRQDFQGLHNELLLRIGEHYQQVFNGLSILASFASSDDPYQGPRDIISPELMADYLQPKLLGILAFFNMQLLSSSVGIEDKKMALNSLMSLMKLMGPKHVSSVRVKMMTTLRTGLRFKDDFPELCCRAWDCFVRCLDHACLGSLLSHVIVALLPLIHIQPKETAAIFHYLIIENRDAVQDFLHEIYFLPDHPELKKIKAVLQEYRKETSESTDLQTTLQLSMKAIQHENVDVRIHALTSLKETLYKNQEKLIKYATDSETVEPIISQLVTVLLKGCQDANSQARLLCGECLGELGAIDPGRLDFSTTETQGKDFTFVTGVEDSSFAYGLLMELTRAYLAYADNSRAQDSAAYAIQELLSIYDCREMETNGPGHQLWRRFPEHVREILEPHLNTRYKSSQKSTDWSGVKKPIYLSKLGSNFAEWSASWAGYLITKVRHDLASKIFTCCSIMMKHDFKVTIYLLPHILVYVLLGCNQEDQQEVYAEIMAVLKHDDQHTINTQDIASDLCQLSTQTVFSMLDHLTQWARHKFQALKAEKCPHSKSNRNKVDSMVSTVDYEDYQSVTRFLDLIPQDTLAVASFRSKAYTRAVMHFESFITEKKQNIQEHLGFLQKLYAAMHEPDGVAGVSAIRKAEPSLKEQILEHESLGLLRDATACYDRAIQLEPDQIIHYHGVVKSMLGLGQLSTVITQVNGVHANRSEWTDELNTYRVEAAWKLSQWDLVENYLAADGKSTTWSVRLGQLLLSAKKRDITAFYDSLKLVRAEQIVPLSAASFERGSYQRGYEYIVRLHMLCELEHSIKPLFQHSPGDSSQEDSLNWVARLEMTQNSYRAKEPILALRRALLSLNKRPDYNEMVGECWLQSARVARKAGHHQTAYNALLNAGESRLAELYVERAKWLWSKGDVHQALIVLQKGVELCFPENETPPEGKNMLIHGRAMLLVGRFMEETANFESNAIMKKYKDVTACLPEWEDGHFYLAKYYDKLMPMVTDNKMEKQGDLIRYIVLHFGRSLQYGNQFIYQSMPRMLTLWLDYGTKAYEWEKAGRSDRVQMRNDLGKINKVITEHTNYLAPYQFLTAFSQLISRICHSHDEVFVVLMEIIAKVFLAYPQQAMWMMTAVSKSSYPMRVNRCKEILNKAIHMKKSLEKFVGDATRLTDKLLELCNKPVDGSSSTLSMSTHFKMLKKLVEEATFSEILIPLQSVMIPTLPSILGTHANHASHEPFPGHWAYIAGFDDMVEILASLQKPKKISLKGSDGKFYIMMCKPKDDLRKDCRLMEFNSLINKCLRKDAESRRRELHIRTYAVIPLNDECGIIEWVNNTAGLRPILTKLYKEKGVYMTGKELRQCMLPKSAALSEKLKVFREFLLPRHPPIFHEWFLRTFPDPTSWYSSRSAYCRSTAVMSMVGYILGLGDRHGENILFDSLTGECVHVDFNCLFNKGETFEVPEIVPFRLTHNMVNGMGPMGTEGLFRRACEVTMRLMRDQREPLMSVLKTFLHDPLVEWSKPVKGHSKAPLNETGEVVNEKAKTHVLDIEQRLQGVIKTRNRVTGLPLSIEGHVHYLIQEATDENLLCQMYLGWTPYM
T1 sequence (Q8WXE1 whole entry partner, the tested form may be a part): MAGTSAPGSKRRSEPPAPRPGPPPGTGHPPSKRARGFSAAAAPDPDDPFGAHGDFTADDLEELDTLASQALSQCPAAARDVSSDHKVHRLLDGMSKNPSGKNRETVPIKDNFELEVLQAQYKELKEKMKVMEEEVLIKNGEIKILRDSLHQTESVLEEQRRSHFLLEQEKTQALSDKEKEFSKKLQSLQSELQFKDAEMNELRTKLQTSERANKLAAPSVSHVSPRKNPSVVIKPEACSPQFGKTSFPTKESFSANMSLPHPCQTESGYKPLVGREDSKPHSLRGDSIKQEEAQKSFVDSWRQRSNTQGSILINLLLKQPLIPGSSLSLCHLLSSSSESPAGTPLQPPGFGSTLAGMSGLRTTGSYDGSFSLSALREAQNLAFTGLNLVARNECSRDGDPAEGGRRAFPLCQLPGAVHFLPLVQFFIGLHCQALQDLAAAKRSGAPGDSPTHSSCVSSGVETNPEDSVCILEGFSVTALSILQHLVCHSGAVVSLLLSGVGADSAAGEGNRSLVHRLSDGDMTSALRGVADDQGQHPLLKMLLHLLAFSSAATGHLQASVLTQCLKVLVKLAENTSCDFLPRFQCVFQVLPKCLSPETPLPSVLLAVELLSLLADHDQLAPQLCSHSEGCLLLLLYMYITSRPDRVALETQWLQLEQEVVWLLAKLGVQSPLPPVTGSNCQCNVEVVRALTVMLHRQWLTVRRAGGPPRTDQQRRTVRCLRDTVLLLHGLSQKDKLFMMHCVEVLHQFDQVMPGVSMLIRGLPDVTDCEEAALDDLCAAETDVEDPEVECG

Chain of mTOR (P42345 1362-2549): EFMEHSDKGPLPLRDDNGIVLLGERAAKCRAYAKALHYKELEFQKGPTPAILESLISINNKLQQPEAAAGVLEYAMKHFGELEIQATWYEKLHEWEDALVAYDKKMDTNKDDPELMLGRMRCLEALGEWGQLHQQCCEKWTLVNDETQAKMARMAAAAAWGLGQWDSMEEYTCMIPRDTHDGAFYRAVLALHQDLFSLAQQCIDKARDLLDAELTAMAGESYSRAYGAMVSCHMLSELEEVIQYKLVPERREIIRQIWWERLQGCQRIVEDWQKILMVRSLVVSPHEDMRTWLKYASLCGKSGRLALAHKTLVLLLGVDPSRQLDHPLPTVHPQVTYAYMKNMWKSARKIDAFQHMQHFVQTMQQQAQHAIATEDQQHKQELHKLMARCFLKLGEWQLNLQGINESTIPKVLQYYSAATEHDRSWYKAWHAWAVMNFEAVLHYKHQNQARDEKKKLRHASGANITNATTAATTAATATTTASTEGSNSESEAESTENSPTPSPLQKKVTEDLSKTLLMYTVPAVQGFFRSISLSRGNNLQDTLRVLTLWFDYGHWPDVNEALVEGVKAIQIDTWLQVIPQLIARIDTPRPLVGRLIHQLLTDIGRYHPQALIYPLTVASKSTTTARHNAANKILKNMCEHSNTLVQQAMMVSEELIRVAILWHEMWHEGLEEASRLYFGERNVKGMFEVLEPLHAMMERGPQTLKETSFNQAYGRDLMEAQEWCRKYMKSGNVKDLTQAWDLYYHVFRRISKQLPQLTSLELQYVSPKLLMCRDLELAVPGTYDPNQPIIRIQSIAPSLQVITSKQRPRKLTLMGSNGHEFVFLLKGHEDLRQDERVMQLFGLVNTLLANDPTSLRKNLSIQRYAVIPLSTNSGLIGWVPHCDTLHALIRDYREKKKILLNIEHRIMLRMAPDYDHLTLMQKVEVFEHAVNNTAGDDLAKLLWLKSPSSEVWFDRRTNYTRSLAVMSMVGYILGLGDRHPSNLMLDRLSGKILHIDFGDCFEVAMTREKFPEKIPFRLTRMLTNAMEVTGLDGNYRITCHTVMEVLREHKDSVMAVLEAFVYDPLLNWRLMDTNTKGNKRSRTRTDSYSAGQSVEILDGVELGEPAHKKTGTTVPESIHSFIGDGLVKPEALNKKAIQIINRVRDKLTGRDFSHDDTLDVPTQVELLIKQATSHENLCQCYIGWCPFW

| pIC50 [2] | pIC50 [3] | Compound | further results |
| --- | --- | --- | --- |
| 7.01 | 8.65 | C[C@@H]1COCCN1c1cc(C2(S(=O)(=O)C3CC3)CC2)nc(-c2cccc3[nH]ccc23)n1 [Example 3.17, 4-{4-[1-(Cyclopropylsulfonyl)cyclopropyl]-6-[(3R)-3-methylmorpholin-4-yl]pyrimidin-2-yl}-1H-indole] | – |
| 6.16 | 8.16 | CCS(=O)(=O)C1(c2cc(N3CCOC[C@H]3C)nc(-c3cccc4[nH]ccc34)n2)CCOCC1 [Example 3.21, 4-{4-[4-(Ethylsulfonyl)tetrahydro-2H-pyran-4-yl]-6-[(3R)-3-methylmorpholin-4-yl]pyrimidin-2-yl}-1H-indole] | – |
| 6.26 | 8.09 | CCS(=O)(=O)C1(c2cc(N3CCOC[C@H]3C)nc(-c3cccc4[nH]ccc34)n2)CCNCC1 [Example 3.22, 4-{4-[4-(Ethylsulfonyl)piperidin-4-yl]-6-[(3R)-3-methylmorpholin-4-yl]pyrimidin-2-yl}-1H-indole] | – |
| 5.21 | 6.58 | CC(C)S(=O)(=O)C1(c2cc(N3CCOC[C@H]3C)nc(-c3cccc4[nH]ccc34)n2)CCOCC1 [Example 3.24, 4-(4-{4-[(1-Methylethyl)sulfonyl]tetrahydro-2H-pyran-4-yl}-6-[(3R)-3-methylmorpholin-4-yl]pyrimidin-2-yl)-1H-indole] | – |

The remaining lines, values behind:

| Compound | pIC50 [2] | pIC50 [3] | further results |
| --- | --- | --- | --- |
| N.N.O=C([O-])C1(C(=O)[O-])CCC1.[Pt+2] [Carboplatin, reference compound] | – | – | IC50 ([1]; Carboplatin alone, 5 days growth): 3.97 µg/mL |
| C[C@@H]1COCCN1c1cc(C2(S(C)(=O)=O)CC2)nc(-c2cccc3[nH]ccc23)n1 [Example 3.01, 4-{4-[(3R)-3-Methylmorpholin-4-yl]-6-[1-(methylsulfonyl)cyclopropyl]pyrimidin-2-yl}-1H-indole] | – | – | IC50 ([1]; Homo sapiens, HT-29, 120 h, Carboplatin + 0.1 uM Example 3.01, 5 days growth, read-out: IC50): 1.96 µg/mL; IC50 ([1]; Homo sapiens, HT-29, 120 h, Carboplatin + 0.3 uM Example 3.01, 5 days growth, read-out: IC50): 0.39 µg/mL; PF50 ([1]; potentiation factor of Carboplatin by 0.1 uM Example 3.01 (ratio of IC50 values)): 2.02; PF50 ([1]; potentiation factor of Carboplatin by 0.3 uM Example 3.01 (ratio of IC50 values)): 10.08 |
| C[C@@H]1COCCN1c1cc(C2(S(C)(=O)=O)CCC2)nc(-c2cccc3[nH]ccc23)n1 [Example 3.16, 4-{4-[(3R)-3-Methylmorpholin-4-yl]-6-[1-(methylsulfonyl)cyclobutyl]pyrimidin-2-yl}-1H-indole] | 7.07 | 8.70 | – |
| C[C@@H]1COCCN1c1cc(C2(S(=O)(=O)C3CC3)CCNCC2)nc(-c2cccc3[nH]ccc23)n1 [Example 3.18, 4-{4-[4-(Cyclopropylsulfonyl)piperidin-4-yl]-6-[(3R)-3-methylmorpholin-4-yl]pyrimidin-2-yl}-1H-indole] | 6.42 | 8.12 | – |
| C[C@@H]1COCCN1c1cc(C2(S(=O)(=O)C3CC3)CCOCC2)nc(-c2cccc3[nH]ccc23)n1 [Example 3.19, 4-{4-[4-(Cyclopropylsulfonyl)tetrahydro-2H-pyran-4-yl]-6-[(3R)-3-methylmorpholin-4-yl]pyrimidin-2-yl}-1H-indole] | 5.55 | 7.01 | – |
| CCS(=O)(=O)C1(c2cc(N3CCOC[C@H]3C)nc(-c3cccc4[nH]ccc34)n2)CC1 [Example 3.20, 4-{4-[1-(Ethylsulfonyl)cyclopropyl]-6-[(3R)-3-methylmorpholin-4-yl]pyrimidin-2-yl}-1H-indole] | 7.15 | 8.60 | – |
| CC(C)S(=O)(=O)C1(c2cc(N3CCOC[C@H]3C)nc(-c3cccc4[nH]ccc34)n2)CC1 [Example 3.23, 4-(4-{1-[(1-Methylethyl)sulfonyl]cyclopropyl}-6-[(3R)-3-methylmorpholin-4-yl]pyrimidin-2-yl)-1H-indole] | 7.05 | 8.61 | – |
| CC(C)S(=O)(=O)C1(c2cc(N3CCOC[C@H]3C)nc(-c3cccc4[nH]ccc34)n2)CCNCC1 [Example 3.25, 4-(4-{4-[(1-Methylethyl)sulfonyl]piperidin-4-yl}-6-[(3R)-3-methylmorpholin-4-yl]pyrimidin-2-yl)-1H-indole] | 5.37 | 7.69 | – |

Source: patent US20110053923A1, “CHEMICAL COMPOUNDS 610” (AstraZeneca, priority 2008, published 2011)
